For the test, the target named is MDM2-p53 interaction (Homo sapiens (Human), UniProt Q00987). The following applies: for inhibition at 0.001 µM: read-out: MDM2 % inhibition @0.0010; for inhibition at 0.1 µM: read-out: MDM2 % inhibition @0.10.

Structures are written as SMILES. Where two headings read alike, the source gives them in different places.

MDM2-p53 interaction, sequence (Q00987 whole entry): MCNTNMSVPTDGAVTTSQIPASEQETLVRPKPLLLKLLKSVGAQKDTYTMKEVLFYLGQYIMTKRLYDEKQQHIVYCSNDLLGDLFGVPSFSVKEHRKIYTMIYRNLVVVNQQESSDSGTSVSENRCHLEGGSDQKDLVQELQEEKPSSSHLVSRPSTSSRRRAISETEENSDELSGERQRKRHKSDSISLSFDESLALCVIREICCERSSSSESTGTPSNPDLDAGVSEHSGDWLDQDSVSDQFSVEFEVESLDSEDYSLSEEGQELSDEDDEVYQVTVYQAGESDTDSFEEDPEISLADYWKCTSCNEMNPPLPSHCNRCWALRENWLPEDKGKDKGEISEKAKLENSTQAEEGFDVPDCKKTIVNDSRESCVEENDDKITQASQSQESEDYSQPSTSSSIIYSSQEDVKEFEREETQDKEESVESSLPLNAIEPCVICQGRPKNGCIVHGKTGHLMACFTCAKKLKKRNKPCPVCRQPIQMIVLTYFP

With `CC(=O)N1CCC(C(C)(O)c2cc(F)c3c(c2)C(=O)N(Cc2ccc(Cl)cn2)[C@@]3(OCC2(C#N)CC2)c2ccc(Cl)cc2)CC1` (single isomer, unassigned) [Example 301], the “MDM2 % at stated concentration” value is reported as 75%@0.0010.

In the case of `Cn1cc(C(C)(O)c2cc(F)c3c(c2)C(=O)N(Cc2ccc(Cl)c[n+]2[O-])[C@@]3(OCC2(CO)CC2)c2ccc(Cl)cc2)cn1` (single isomer, unassigned) [Example 407], the “MDM2 % at stated concentration” value is 62%@0.0010.

Consider `CO[C@]1(c2ccc(Cl)cc2)c2c(F)cc(C(C)(O)c3cnn(C4CN(C(=O)OC(C)(C)C)C4)c3)cc2C(=O)N1Cc1ccc(Cl)cn1` (single isomer, unassigned) [Example 458], for which the inhibition (in general, how much of the control response was suppressed) at 0.01 µM (read-out: MDM2 % inhibition @0.010) worked out at 44%.

Take `CCC(O)(c1cc(F)c2c(c1)C(=O)N(Cc1ccc(C#N)cn1)[C@@]2(OC[C@@H](C)O)c1ccc(Cl)cc1)C1(F)CCOCC1` (single isomer, unassigned) [Example 497]: the inhibition at 0.001 µM was 83%.

Consider `CCC(O)(c1cc(F)c2c(c1)C(=O)N(Cc1ccc(C#N)cn1)[C@@]2(OCCO)c1ccc(Cl)cc1)C1(F)CCOCC1` (single isomer, unassigned) [Example 499], for which the inhibition at 0.001 µM came to 68%.

Regarding `CC(C)(O)c1cc(F)c2c(c1)C(=O)N(Cc1ccc(Cl)cn1)[C@@]2(OCC1(CNCCO)CC1)c1ccc(Cl)cc1` [Example 326, (3R)-3-(4-chlorophenyl)-2-[(5-chloropyridin-2-yl)methyl]-4-fluoro-3-[(1-{[(2-hydroxyethyl)amino]methyl}cyclopropyl)methoxy]-6-(2-hydroxypropan-2-yl)-2,3-dihydro-1H-isoindol-1-one], for the setting “at 0.030 μM”, the “MDM2 % at stated concentration” value is 50%@0.030.

Take `CC(C)(O)c1cc(F)c2c(c1)C(=O)N([C@H](c1ccc(Cl)cn1)C(O)CO)[C@@]2(OCC1(O)CC1)c1ccc(Cl)cc1` (stereo partly drawn) [Example 331, (3R)-3-(4-Chlorophenyl)-2-[(1R)-1-(5-chloropyridin-2-yl)-2,3-dihydroxypropyl]-4-fluoro-3-[(1-hydroxycyclopropyl)methoxy]-6-(2-hydroxypropan-2-yl)-2,3-dihydro-1H-isoindol-1-one]: for the setting “at 0.030 μM”, the “MDM2 % at stated concentration” value was determined as 49%@0.030.

Take `Cn1cc(C(O)(c2cc(F)c3c(c2)C(=O)N(Cc2ccc(C#N)cn2)[C@@]3(O[C@H]2CCOC2)c2ccc(Cl)cc2)C(F)(F)F)cn1` (stereo partly drawn) [Example 371, 6-{[(1R)-1-(4-chlorophenyl)-7-fluoro-3-oxo-1-[(3S)-oxolan-3-yloxy]-5-[2,2,2-trifluoro-1-hydroxy-1-(1-methyl-1H-pyrazol-4-yl)ethyl]-2,3-dihydro-1H-isoindol-2-yl]methyl}pyridine-3-carbonitrile]: the inhibition at 0.03 µM (read-out: MDM2 % inhibition @0.030) turned out to be 43%.

Regarding `CCC(O)(c1cc(F)c2c(c1)C(=O)N(Cc1ccc(C#N)cn1)[C@@]2(OCCOC)c1ccc(Cl)cc1)c1cn(C)cn1` (stereo partly drawn) [Example 429, 6-{[(1R)-1-(4-chlorophenyl)-7-fluoro-5-[1-hydroxy-1-(1-methyl-1H-imidazol-4-yl)propyl]-1-(2-methoxyethoxy)-3-oxo-2,3-dihydro-1H-isoindol-2-yl]methyl}pyridine-3-carbonitrile], the inhibition at 0.1 µM was found to be 65%.

As for `CO[C@]1(c2ccc(Cl)cc2)c2c(F)cc(C(C)(O)c3cnn(C4CN(C(=O)OC(C)(C)C)C4)c3)cc2C(=O)N1Cc1ccc(Cl)cn1` (stereo partly drawn) [Example 457, tert-Butyl 3-(4-{1-[(1R)-1-(4-chlorophenyl)-2-[(5-chloropyridin-2-yl)methyl]-7-fluoro-1-methoxy-3-oxo-2,3-dihydro-1H-isoindol-5-yl]-1-hydroxyethyl}-1H-pyrazol-1-yl)azetidine-1-carboxylate], the inhibition at 0.3 µM (read-out: MDM2 % inhibition @0.30) was found to be 53%.

As for `CCC(O)(c1cc(F)c2c(c1)C(=O)N(Cc1ncc(C#N)cn1)[C@@]2(OCC1(C#N)CC1)c1ccc(Cl)cc1)c1cn(C)cn1` (stereo partly drawn) [Example 463, 2-{[(1R)-1-(4-chlorophenyl)-1-[(1-cyanocyclopropyl)methoxy]-7-fluoro-5-[1-hydroxy-1-(1-methyl-1H-imidazol-4-yl)propyl]-3-oxo-2,3-dihydro-1H-isoindol-2-yl]methyl}pyrimidine-5-carbonitrile], the inhibition at 0.1 µM is 73%.

Source of the values: patent US11236047B2 (ASTEX THERAPEUTICS LIMITED, priority 2017, dated 2022).
